Laboratory results: ChEMBL document CHEMBL1201862, “PubChem BioAssay data set” (2004)
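96-well plates; 48 h exposure; 5 concentrations. Endpoints by linear interpolation between flanking doses. Not reached: highest tested concentration assigned. GI50 = concentration required for 50% inhibition of growth.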 Calls of active or inactive are those of the source. Cut-off read from the data, not from the text of the source: active = GI50 up to about 1.1 µM and inactive = higher.

What was measured:
Assay in all cases: NCI-60 cell line screen, 48 h
786-0 = tested on: 786-0
A549 = tested on: A549
COLO 205 = tested on: COLO 205
HCC 2998 = tested on: HCC 2998
HCT-116 = tested on: HCT-116
MOLT-4 = tested on: MOLT-4
Malme-3M = tested on: Malme-3M
NCI-H226 = tested on: NCI-H226
OVCAR-3 = tested on: OVCAR-3
SF-295 = tested on: SF-295
SK-MEL-2 = tested on: SK-MEL-2
SK-MEL-5 = tested on: SK-MEL-5
SK-OV-3 = tested on: SK-OV-3
SN12C = tested on: SN12C
SNB-75 = tested on: SNB-75
TK-10 = tested on: TK-10

| Structure (SMILES) | GI50 (786-0) | GI50 (A549) | GI50 (COLO 205) | GI50 (HCC 2998) | GI50 (HCT-116) | GI50 (MOLT-4) | GI50 (Malme-3M) | GI50 (NCI-H226) | GI50 (OVCAR-3) | GI50 (SF-295) | GI50 (SK-MEL-2) | GI50 (SK-MEL-5) | GI50 (SK-OV-3) | GI50 (SN12C) | GI50 (SNB-75) | GI50 (TK-10) |
| --- | --- | --- | --- | --- | --- | --- | --- | --- | --- | --- | --- | --- | --- | --- | --- | --- |
| N#CC(C#N)=Cc1cccc(Oc2ccccc2)c1 | 18.6 µM (inactive) | 70.3 µM (inactive) | 29 µM (inactive) | 28.4 µM (inactive) | 17.1 µM (inactive) | 25 µM (inactive) | 20.1 µM (inactive) | 33 µM (inactive) | 23 µM (inactive) | 20.2 µM (inactive) | 21.2 µM (inactive) | 18.9 µM (inactive) | 71.6 µM (inactive) | 22.5 µM (inactive) | 29.2 µM (inactive) | 31.7 µM (inactive) |
| Oc1cccnc1/C=N/OCc1ccccc1 | > 100 µM (inactive) | > 100 µM (inactive) | > 100 µM (inactive) | > 100 µM (inactive) | > 100 µM (inactive) | > 100 µM (inactive) | > 100 µM (inactive) | > 100 µM (inactive) | > 100 µM (inactive) | > 100 µM (inactive) | > 100 µM (inactive) | > 100 µM (inactive) | > 100 µM (inactive) | 97.1 µM (inactive) | > 100 µM (inactive) | > 100 µM (inactive) |
| CCC1(CN(C)C)CC/C(=C\c2ccc(OC)c(OC)c2)C1=O (stereo not drawn) | > 100 µM (inactive) | > 100 µM (inactive) | 76.6 µM (inactive) | > 100 µM (inactive) | > 74.5 µM (inactive) | 40.2 µM (inactive) | > 100 µM (inactive) | > 100 µM (inactive) | 97.9 µM (inactive) | > 100 µM (inactive) | > 100 µM (inactive) | > 74.3 µM (inactive) | > 100 µM (inactive) | > 100 µM (inactive) | > 67.8 µM (inactive) | > 100 µM (inactive) |
| COC1=CC(=O)C2C(C1=O)[C@@H]1c3ccccc3OC[C@H]21 (stereo partly drawn) | > 100 µM (inactive) | > 100 µM (inactive) | > 100 µM (inactive) | > 100 µM (inactive) | > 100 µM (inactive) | > 100 µM (inactive) | > 100 µM (inactive) | > 100 µM (inactive) | > 100 µM (inactive) | > 100 µM (inactive) | > 100 µM (inactive) | > 100 µM (inactive) | > 100 µM (inactive) |  | > 100 µM (inactive) | > 100 µM (inactive) |
| O=C(CNc1nncs1)NO | > 100 µM (inactive) | > 100 µM (inactive) | > 100 µM (inactive) | > 100 µM (inactive) | > 100 µM (inactive) | > 100 µM (inactive) | > 100 µM (inactive) |  | > 100 µM (inactive) | > 100 µM (inactive) | > 100 µM (inactive) |  | > 100 µM (inactive) | > 100 µM (inactive) | > 100 µM (inactive) | > 100 µM (inactive) |
| CC(C)NC(=O)O/N=C1\CCC2[C@@H]3CC=C4C[C@@H](OC(=O)NC(C)C)CC[C@]4(C)C3CC[C@]12C (stereo partly drawn) | 1.61 µM (inactive) | 1.47 µM (inactive) | 0.359 µM (active) | 2.14 µM (inactive) | 1.43 µM (inactive) | 1.42 µM (inactive) | 0.31 µM (active) | 18.1 µM (inactive) | 1.08 µM (active) | 1.54 µM (inactive) | 1.46 µM (inactive) | 0.425 µM (active) | 4.31 µM (inactive) | 1.57 µM (inactive) | 1.87 µM (inactive) | 1.66 µM (inactive) |
| Nc1c(Cl)ncnc1NCCCCCCCCCCCCNc1ncnc(Cl)c1N | 2.86 µM (inactive) | 2.07 µM (inactive) | 8.24 µM (inactive) | 3.72 µM (inactive) | 0.0469 µM (active) | 0.167 µM (active) | 1.94 µM (inactive) |  | < 0.01 µM (active) | 1.01 µM (active) | 2.35 µM (inactive) | < 0.01 µM (active) | 4.18 µM (inactive) | 3.13 µM (inactive) | 1.28 µM (inactive) | 4.6 µM (inactive) |
| C=Cc1ccc(C)[n+](C[Si](C)(C)O[Si](C)(C)C[n+]2cc(C=C)ccc2C)c1 | > 100 µM (inactive) | 71.8 µM (inactive) | > 100 µM (inactive) | > 100 µM (inactive) | > 100 µM (inactive) | > 100 µM (inactive) | > 100 µM (inactive) | > 100 µM (inactive) | > 100 µM (inactive) | > 100 µM (inactive) | > 100 µM (inactive) | > 100 µM (inactive) | > 100 µM (inactive) | > 100 µM (inactive) | > 100 µM (inactive) | > 100 µM (inactive) |
| Cn1cnc([N+](=O)[O-])c1Sc1nc2cccnc2s1 | 14.5 µM (inactive) | 34 µM (inactive) | 10.3 µM (inactive) | 16.7 µM (inactive) | 16 µM (inactive) | 10.4 µM (inactive) | 10.1 µM (inactive) | 17.1 µM (inactive) | 14.6 µM (inactive) | > 100 µM (inactive) |  | 19.7 µM (inactive) | 51.3 µM (inactive) | 17.8 µM (inactive) | 25.2 µM (inactive) | 15.7 µM (inactive) |
| CN[C@H](C)[C@@H](OC)c1ccccc1 | > 100 µM (inactive) | > 100 µM (inactive) | > 100 µM (inactive) | > 100 µM (inactive) | > 100 µM (inactive) | > 100 µM (inactive) | > 100 µM (inactive) | > 100 µM (inactive) | > 100 µM (inactive) | > 100 µM (inactive) | > 100 µM (inactive) | > 100 µM (inactive) | > 100 µM (inactive) | > 100 µM (inactive) | 61.4 µM (inactive) | > 100 µM (inactive) |
| CC1C(=O)CCC1C(Sc1ccccc1)(Sc1ccccc1)Sc1ccccc1 (stereo not drawn) | 22.5 µM (inactive) | 9.27 µM (inactive) | 38.2 µM (inactive) | 20.8 µM (inactive) | 16.1 µM (inactive) | 4.73 µM (inactive) | 37.1 µM (inactive) |  | 17.6 µM (inactive) | 36.8 µM (inactive) | 34.9 µM (inactive) | 16.9 µM (inactive) | 80.2 µM (inactive) | 21.1 µM (inactive) | 17.1 µM (inactive) | 47.9 µM (inactive) |
| O=c1cccccc1NCCCCNc1cccccc1=O | > 100 µM (inactive) | 59.2 µM (inactive) | > 100 µM (inactive) | 85.3 µM (inactive) | > 100 µM (inactive) | 62.1 µM (inactive) | 29.4 µM (inactive) | 73.6 µM (inactive) | > 100 µM (inactive) | > 100 µM (inactive) | > 100 µM (inactive) | 30 µM (inactive) | > 100 µM (inactive) | > 100 µM (inactive) | > 100 µM (inactive) | > 100 µM (inactive) |
| Cc1ccc(C)c(NC(=O)c2cccc([N+](=O)[O-])c2O)c1 | 44.1 µM (inactive) | 25.5 µM (inactive) | 17.3 µM (inactive) | 28.3 µM (inactive) | 23.1 µM (inactive) | 20.3 µM (inactive) | 17.8 µM (inactive) | 16.6 µM (inactive) | 27.1 µM (inactive) | 18.4 µM (inactive) |  | 5.9 µM (inactive) | 29.9 µM (inactive) | 27.2 µM (inactive) | 20.4 µM (inactive) |  |
| Cc1ccccc1N(CCC#N)C1=NN(C(=O)CC(=O)Nc2ccc(Cl)cc2)C(c2ccccc2)C1 (stereo not drawn) | > 100 µM (inactive) | > 100 µM (inactive) | > 100 µM (inactive) | > 100 µM (inactive) | > 100 µM (inactive) | > 100 µM (inactive) | > 100 µM (inactive) | > 100 µM (inactive) | > 100 µM (inactive) | > 100 µM (inactive) | > 100 µM (inactive) | > 100 µM (inactive) | > 100 µM (inactive) | > 100 µM (inactive) | > 100 µM (inactive) |  |
| N#CC(C(=N/O)/C(=N/O)C(C#N)c1ccc(Cl)cc1)c1ccc(Cl)cc1 (stereo not drawn) | > 100 µM (inactive) | > 100 µM (inactive) | 64.6 µM (inactive) | 84.1 µM (inactive) | > 100 µM (inactive) |  | > 100 µM (inactive) | 75.5 µM (inactive) | > 100 µM (inactive) | > 100 µM (inactive) | > 100 µM (inactive) |  | > 100 µM (inactive) | > 100 µM (inactive) | 42 µM (inactive) | > 100 µM (inactive) |
| CC(=O)OC1(C#N)CC2OC1C1NC21 (stereo not drawn) | > 100 µM (inactive) | > 100 µM (inactive) | > 100 µM (inactive) | > 100 µM (inactive) | > 100 µM (inactive) | > 100 µM (inactive) | > 100 µM (inactive) | > 100 µM (inactive) |  |  | > 100 µM (inactive) | > 100 µM (inactive) | > 100 µM (inactive) | > 100 µM (inactive) | > 100 µM (inactive) | > 100 µM (inactive) |
| O=C1NC(=O)C2C1N(Cc1ccccc1)C(=O)N2Cc1ccccc1 (stereo not drawn) | > 100 µM (inactive) | > 100 µM (inactive) | > 100 µM (inactive) | > 100 µM (inactive) | > 100 µM (inactive) | > 100 µM (inactive) | > 100 µM (inactive) | > 100 µM (inactive) | > 100 µM (inactive) | > 100 µM (inactive) |  | > 100 µM (inactive) | > 100 µM (inactive) | > 100 µM (inactive) | > 100 µM (inactive) | > 100 µM (inactive) |
| CC(=O)C1(O)CCC2(O)C3(O)CC=C4CC(O)CCC4(C)C3CC(OC(=O)c3ccc(O)cc3)C12C.COC1CC(OC2C(C)OC(OC3C(C)OC(OC4CCC5(C)C(=CCC6(O)C5CC(OC(=O)c5ccc(O)cc5)C5(C)C(O)(C(C)=O)CCC65O)C4)CC3OC)CC2OC)OC(C)C1O (stereo not drawn) | 23.7 µM (inactive) | 30.5 µM (inactive) | 26.9 µM (inactive) | 26.9 µM (inactive) | 10 µM (inactive) | 30.5 µM (inactive) | 25.1 µM (inactive) | 34.4 µM (inactive) | 20.3 µM (inactive) | 36 µM (inactive) | 20.4 µM (inactive) |  | 36.7 µM (inactive) | 31.3 µM (inactive) | 76.4 µM (inactive) | 60.8 µM (inactive) |
